{
  "source": "patent US20110312984A1",
  "about": "“STAT3 INHIBITORS” (priority 2008, published 2011)",
  "type_in_all_cases": "cell-based",
  "key": {"Stat1": {"target": "T1, Stat1 (Homo sapiens, UniProt P42224)", "T1 construct": "endogenous in cells; host or cells: HepG2", "T1 sequence (P42224 1-750)": "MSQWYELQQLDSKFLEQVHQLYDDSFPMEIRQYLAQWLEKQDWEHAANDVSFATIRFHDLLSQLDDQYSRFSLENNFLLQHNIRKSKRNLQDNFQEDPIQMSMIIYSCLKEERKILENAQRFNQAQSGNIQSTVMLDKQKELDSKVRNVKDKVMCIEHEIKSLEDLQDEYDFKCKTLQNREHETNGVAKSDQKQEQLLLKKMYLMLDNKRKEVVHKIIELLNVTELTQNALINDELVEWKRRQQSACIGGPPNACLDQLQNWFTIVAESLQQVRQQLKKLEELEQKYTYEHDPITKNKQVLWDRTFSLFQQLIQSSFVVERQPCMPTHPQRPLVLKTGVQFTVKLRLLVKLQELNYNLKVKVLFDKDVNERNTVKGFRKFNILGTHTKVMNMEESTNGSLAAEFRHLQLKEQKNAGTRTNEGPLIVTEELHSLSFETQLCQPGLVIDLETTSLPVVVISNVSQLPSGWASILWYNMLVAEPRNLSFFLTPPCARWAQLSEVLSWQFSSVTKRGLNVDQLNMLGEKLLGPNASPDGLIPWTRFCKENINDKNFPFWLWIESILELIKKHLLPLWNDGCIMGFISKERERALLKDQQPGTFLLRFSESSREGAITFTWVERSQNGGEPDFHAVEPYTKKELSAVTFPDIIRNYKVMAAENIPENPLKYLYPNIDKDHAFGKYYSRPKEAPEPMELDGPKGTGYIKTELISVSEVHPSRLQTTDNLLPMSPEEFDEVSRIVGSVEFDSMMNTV", "test": "Immunoblot assay: IFN-γ-mediated phosphorylation of Stat1 in HepG2 cells", "details": "300 μM, 1 hour at 37° C. before IFN-γ stimulation", "procedure": "Immunoblot assay. The human hepatocellular carcinoma cell line (HepG2) was grown in 6-well plates under standard conditions. Cells were pretreated with compounds (0, 1, 3, 10, 30, 100 and 300 uM) for 1 hour then stimulated under optimal conditions with either interferon gamma (IFN-γ; 30 ng/ml for 30 min) to activate Stat1 or interleukin-6 (IL-6; 30 ng/ml for 30 min) to activate Stat3 (30-31). Cultures were then harvested and proteins extracted using high-salt buffer, as described (Shao et al., 2006). Briefly, extracts were mixed with 2× sodium dodecyl sulfate (SDS) sample buffer (125 mmol/L Tris-HCL pH 6.8; 4% SDS; 20% glycerol; 10% 2-mercaptoethanol) at a 1:1 ratio and heated for 5 minutes at 100° C. Proteins (20 μg) were separated by 7.5% SDS-PAGE and transferred to polyvinylidene fluoride (PVDF) membrane (Millipore, Waltham, Mass.) and immunoblotted. Prestained molecular weight markers (Biorad, Hercules, Calif.) were included in each gel. Membranes were probed serially with antibody against Stat1 pY^701 or Stat3 pY^705 followed by antibody against Stat1 or Stat3 (Transduction labs, Lexington, Ky.) then antibody against β-actin (Abcam, Cambridge, Mass.). Membranes were stripped between antibody probing using Restore™ Western Blot Stripping Buffer (Thermo Fisher Scientific Inc., Waltham, Mass.) per the manufacturer's instructions. Horseradish peroxidase-conjugated goat-anti-mouse IgG was used as the secondary antibody (Invitrogen Carlsbad, Calif.) and the membranes were developed with enhanced chemiluminescence (ECL) detection system (Amersham Life Sciences Inc.; Arlington Heights, Ill.).\nEXP IIC. Ligand-mediated pStat3 and pStat1 inhibition assays. […] Briefly, human hepatocellular carcinoma cells (HepG2) are grown in 6-well plates and pretreated with compounds (0, 0.1, 0.3, 1, 3, 10, 30, 100 μM) for 1 hour then stimulated under optimal conditions with either interleukin-6 (IL-6; 30 ng/ml for 30 min) to activate Stat3 or interferon gamma (IFN-γ; 30 ng/ml for 30 min) to activate Stat1. Cells are harvested and proteins extracted using high-salt buffer, mixed with 2× sodium dodecyl sulfate (SDS) sample buffer (125 mmol/L Tris-HCL pH 6.8; 4% SDS; 20% glycerol; 10% 2-mercaptoethanol) at a 1:1 ratio then heated for 5 minutes at 100° C. Proteins (20 μg) are separated by 7.5% SDS-PAGE and transferred to polyvinylidene fluoride (PVDF) membrane (Millipore, Waltham, Mass.) and immunoblotted. Membranes are probed serially with antibody against Stat1 pY701 or Stat3 pY705 followed by antibody against Stat 1 or Stat3 (Transduction labs, Lexington, Ky.) then antibody against β-actin (Abcam, Cambridge, Mass.). Membranes are stripped between antibody probings using Restore™ Western Blot Stripping Buffer (Thermo Fisher Scientific Inc., Waltham, Mass.) per the manufacturer's instructions. Horseradish peroxidase-conjugated goat-anti-mouse IgG is used as the secondary antibody (Invitrogen Carlsbad, Calif.) and the membranes are developed with enhanced chemiluminescence (ECL) detection system (Amersham Life Sciences Inc.; Arlington Heights, Ill.). Band intensities are quantified by densitometry. The value of each pStat3 band is divided by its corresponding total Stat3 band intensity; the results are normalized to the DMSO-treated control value. This value was plotted as a function of the log compound concentration. The best-fitting curve is determined using 4-Parameter Logistic Model/Dose Response/XLfit 4.2, IDBS software and was used to calculate the IC50 value."}, "MDA-MB-453": {"test_system": "MDA-MB-453", "test": "Breast cancer cell line apoptosis assay (nucleosome ELISA)", "details": "Homo sapiens, MDA-MB-453, 24 h", "procedure": "(§1) Breast cancer cell line apoptosis assay. Human breast carcinoma cell lines MDA-MB-468, MDA-MB-231, MBA-MD-435 and MCF7 were kindly provided by Dr. Powel H. Brown (Breast Cancer Center, Baylor College of Medicine). Breast cancer cell line, MDA-MB-453 was kindly provided by Dr. Shou Jiang (Breast Cancer Center, Baylor College of Medicine). All cell lines were grown in DMEM medium supplemented with 10% fetal bovine serum (FBS), 25,000 units penicillin G, 25,000 ug streptomycin, and 131.4 mg L-Glutamine and cultured in the incubator under the condition of 95% air, 5% CO2 at 37° C. (Garcia et al., 2001). Cells were seeded at 2,500 cells/cm^2 into 12-well plates. At 80% confluency, cells were washed with PBS and supplemented with fresh medium containing compound or the topoisomerase I-inhibitor, camptothecin, at 0, 0.1, 03, 1, 3, 10, 30, 100, 300 µM. At 24 hours, treatment was terminated by removing the medium from each well. Cells were lysed with cell lysis buffer (600 μl for 30 minutes at 25° C.). Cell lysate (200 μl) was centrifuged at 200×g for 10 minutes and 20 μl of each supernatant was assayed for nucleosomes using the Cell Death Detection ELISA (Roche Applied Science) as described by the manufacturer. The percent maximum nucleosome level was calculated by dividing the nucleosome level by the maximum nucleosome level achieved in the assay and multiplying by 100. […]"}, "MCF7": {"test_system": "MCF7", "test": "Breast cancer cell line apoptosis assay (nucleosome ELISA)", "details": "Homo sapiens, MCF7, 24 h", "procedure": "as §1"}},
  "note": "pEC50: −log10 of the molar value.",
  "data": [
    {"smiles": "O=C(O)CSc1cc(NS(=O)(=O)c2ccc(C(=O)O)cc2)c2ccccc2c1O", "note": "[Cpd188, 4-[({3-[(carboxymethyl)thio]-4-hydroxy-1-naphthyl}amino)sulfonyl]benzoic acid]", "values": [
      {"measurement": "Stat1 phosphorylation blocked", "setting": "Stat1", "result": "did not"},
      {"measurement": "pEC50", "setting": "MDA-MB-453", "result": 4.76},
      {"measurement": "pEC50", "setting": "MCF7", "result": 4.81}
    ]}
  ]
}
